Experimental data taken from US6680333B2, “Imidazolidine derivatives, their preparation, their use and pharmaceutical preparations comprising them” (Aventis Pharma Deutschland GmbH, priority 2001, dated 2004).
Structures can show the parent of a compound that is named as a salt.

Target: T1, adhesion of U937 cells (VLA-4) to hVCAM-1(1-3)-IgG (Homo sapiens, UniProt P05556+P13612)
T1 construct: the VLA-4 integrins, are supplied in their natural form as surface molecules on human U937 cells; host or cells: Human U937 cells carry endogenous VLA-4; The partner hVCAM-1(1-3)-IgG was made in transfected COS cells (ATCC CRL1651) and used as culture supernatant
Assay: U937/VCAM-1 cell adhesion test
Assay type: cell-based
Settings: human U937 cells (ATCC CRL 1593); recombinant hVCAM-1(1-3)-IgG; read-out: IC50 (inhibition of the adhesion of U937 cells to hVCAM-1(1-3)-IgG by 50%)
From the text: A) U937/VCAM-1 Cell Adhesion Test
The test method used for the activity of the compounds of formula I on the interaction between VCAM-1 and VLA-4 is the assay described below, which is specific for this interaction. The cellular binding components, i.e., the VLA-4 integrins, are supplied in their natural form as surface molecules on human U937 cells (ATCC CRL 1593), which belong to the leukocytes group. As specific binding components, recombinant soluble fusion proteins prepared by genetic engineering, consisting of the extracytoplasmic domain of human VCAM-1 and the constant region of a human immunoglobulin of subclass IgG1, are used.
Assay for the measurement of the adhesion of U937 cells (ATCC CRL 1593) to hVCAM-1(1-3)-IgG
1. Preparation of Human VCAM-1(1-3)-IgG and Human CD4-IgG
A genetic construct for the expression of the extracellular domain of human VCAM-1, combined with the genetic sequence of the heavy chain of the human immunoglobulin IgG1 (hinge, CH2 and CH3 regions) (from Dr. Brian Seed, Massachusetts General Hospital, Boston, USA; cf. Damle and Aruffo, Proc. Natl. Acad. Sci. USA, 88:6403 (1991)), was employed. The soluble fusion protein hVCAM-1(1-3)-IgG contained the three amino-terminal extracellular immunoglobulin-like domains of human VCAM-1 (Damle and Aruffo, Proc. Natl. Acad. Sci. USA, 88:6403 (1991)). CD4-IgG (Zettlmeissl et al., DNA and Cell Biology, 9:347 (1990)) served as a fusion protein for negative controls. The recombinant proteins were expressed as soluble proteins after DEAE/dextran-mediated DNA transfection in COS cells (ATCC CRL1651) according to standard procedures (Ausubel et al., “Current Protocols in Molecular Biology”, John Wiley & Sons, Inc., 1994).
2. Assay for the Measurement of the Adhesion of U937 Cells to hVCAM-1 (1-3)-IgG
2.1 96 well microtiter test plates (Nunc Maxisorb) were incubated at room temperature for 1 hour with 100 μL/well of a goat anti-human IgG antibody solution (10 μg/mL in 50 mM tris, pH 9.5). After removal of the antibody solution, washing was carried out once with PBS.
2.2 150 μL/well of a blocking buffer (1% BSA in PBS) were incubated on the plates at room temperature for 0.5 hour. After removal of the blocking buffer, washing was carried out once with PBS.
2.3 100 μL per well of a cell culture supernatant of transfected COS cells were incubated on the plates at room temperature for 1.5 hours. The COS cells were transfected with a plasmid which codes for the three N-terminal immunglobulin-like domains of VCAM-1, coupled to the Fc part of human IgG1 (hVCAM-l (1-3)-IgG). The content of hVCAM-1(1-3)-IgG was about 0.5-1 μg/mL. After removal of the culture supernatant, washing was carried out once with PBS.
2.4 The plates were incubated at room temperature for 20 minutes with 100 μL/well of Fc receptor block buffer (1 mg/mL γ-globulin, 100 mM NaCl, 100 μM MgCl2, 100 μM MnCl2, 100 μM CaCl2, 1 mg/mL BSA in 50 mM HEPES, pH 7.5). After removal of the Fc receptor block buffer, washing was carried out once with PBS.
2.5 20 μL of binding buffer (100 mM NaCl, 100 μM MgCl2, 100 μM MnCl2, 100 μM CaCl2, 1 mg/mL BSA in 50 mM HEPES, pH 7.5) were introduced, the substances to be tested were added in 10 μL of binding buffer and incubation was carried out for 20 minutes. Antibodies against VCAM-1 (BBT, No. BBA6) and against VLA-4 (Immunotech, No. 0764) served as controls.
2.6 U937 cells were incubated for 20 minutes in Fc receptor block buffer and then added by pipette in a concentration of 1×10^6/mL and in an amount of 100 μL per well (final volume […]).
2.7 The plates were slowly immersed at an angle of 45° in stop buffer (100 mM NaCl, 100 μM MgCl2, […], 100 μM CaCl2 in 25 mM tris, pH 7.5) and shaken off. The process was repeated.
2.8 50 μL/well of a dye solution (16.7 μg/mL of Hoechst dye 33258, 4% formaldehyde, 0.5% Triton X-100 in PBS) were then incubated on the plates for 15 minutes. […]

T1 sequence (P13612 34-1032): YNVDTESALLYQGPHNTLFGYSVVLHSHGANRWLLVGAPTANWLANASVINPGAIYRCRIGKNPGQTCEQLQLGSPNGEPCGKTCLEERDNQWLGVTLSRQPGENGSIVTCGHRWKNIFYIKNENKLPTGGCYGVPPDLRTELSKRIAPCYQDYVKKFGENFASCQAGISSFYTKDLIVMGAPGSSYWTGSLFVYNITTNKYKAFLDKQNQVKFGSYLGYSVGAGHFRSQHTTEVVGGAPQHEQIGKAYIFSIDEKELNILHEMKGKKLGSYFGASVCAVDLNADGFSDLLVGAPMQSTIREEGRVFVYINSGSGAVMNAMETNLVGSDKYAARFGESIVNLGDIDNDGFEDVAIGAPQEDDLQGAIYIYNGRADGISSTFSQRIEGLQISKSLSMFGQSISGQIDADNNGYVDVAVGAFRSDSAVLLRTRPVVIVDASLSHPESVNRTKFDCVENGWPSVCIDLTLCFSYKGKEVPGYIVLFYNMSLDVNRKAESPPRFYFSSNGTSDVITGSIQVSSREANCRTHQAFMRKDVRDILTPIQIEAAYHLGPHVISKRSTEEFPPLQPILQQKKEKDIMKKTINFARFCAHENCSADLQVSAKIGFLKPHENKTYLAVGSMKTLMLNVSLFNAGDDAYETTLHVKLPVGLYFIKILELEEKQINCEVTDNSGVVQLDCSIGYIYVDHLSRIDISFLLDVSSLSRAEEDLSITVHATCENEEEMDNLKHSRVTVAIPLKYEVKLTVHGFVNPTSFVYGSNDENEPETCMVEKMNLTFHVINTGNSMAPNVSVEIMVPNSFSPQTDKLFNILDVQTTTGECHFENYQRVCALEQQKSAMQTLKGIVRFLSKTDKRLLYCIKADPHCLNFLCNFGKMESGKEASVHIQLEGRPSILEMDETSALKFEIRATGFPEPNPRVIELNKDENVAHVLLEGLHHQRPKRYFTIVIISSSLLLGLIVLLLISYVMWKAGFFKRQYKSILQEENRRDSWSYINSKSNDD
T1 sequence (P05556 21-798): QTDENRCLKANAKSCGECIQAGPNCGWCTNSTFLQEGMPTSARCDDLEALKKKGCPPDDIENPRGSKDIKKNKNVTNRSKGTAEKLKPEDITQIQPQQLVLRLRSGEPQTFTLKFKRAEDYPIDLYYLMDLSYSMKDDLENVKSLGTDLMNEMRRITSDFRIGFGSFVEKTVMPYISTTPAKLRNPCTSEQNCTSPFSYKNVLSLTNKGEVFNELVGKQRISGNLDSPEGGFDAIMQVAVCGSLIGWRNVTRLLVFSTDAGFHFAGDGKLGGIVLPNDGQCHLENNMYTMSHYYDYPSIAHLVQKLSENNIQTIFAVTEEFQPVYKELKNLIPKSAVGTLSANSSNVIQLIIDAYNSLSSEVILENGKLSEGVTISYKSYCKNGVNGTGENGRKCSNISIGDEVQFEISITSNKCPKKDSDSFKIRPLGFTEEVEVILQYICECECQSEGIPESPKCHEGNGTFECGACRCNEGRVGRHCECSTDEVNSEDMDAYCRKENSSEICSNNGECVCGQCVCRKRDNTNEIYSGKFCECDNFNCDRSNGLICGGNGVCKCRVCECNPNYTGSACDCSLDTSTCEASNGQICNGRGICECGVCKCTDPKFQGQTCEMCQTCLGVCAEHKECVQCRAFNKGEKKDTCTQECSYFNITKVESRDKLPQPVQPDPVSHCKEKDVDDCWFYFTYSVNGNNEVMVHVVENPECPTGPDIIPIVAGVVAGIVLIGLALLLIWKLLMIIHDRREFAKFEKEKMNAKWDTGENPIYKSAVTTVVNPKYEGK

IC50 | Structure (SMILES)
0.5 nM | COc1cc(CN2C(=O)N([C@@H](CC3CC3)C(=O)N[C@H](C)CC(=O)O)C(=O)C2(C)C)ccc1NC(=O)Nc1ccccc1C [Example 2]
4.4 nM | COc1cc(CN2C(=O)N([C@@H](CC3CC3)C(=O)N[C@@H](CC(=O)O)c3ccccc3)C(=O)C2(C(F)(F)F)C(F)(F)F)ccc1NC(=O)Nc1ccccc1C [Example 19, (S)-3-((S)-2-(4,4-Bis(trifluoromethyl)-3-(4-(3-(2-methylphenyl)ureido)-3-methoxybenzyl)-2,5-dioxoimidazolidin-1-yl)-2-(cyclopropylmethyl)acetylamino)-3-phenylpropionic Acid]
0.6 nM | COc1cc(CN2C(=O)N([C@@H](CC3CC3)C(=O)NC(CC(=O)O)c3cccnc3)C(=O)C2(C)C)ccc1NC(=O)Nc1ccccc1C (stereo partly drawn) [Example 10, 3-((S)-2-(4,4-Dimethyl-3-(4-(3-(2-methylphenyl)ureido)-3-methoxybenzyl)-2,5-dioxoimidazolidin-1-yl)-2-(cyclopropylmethyl)acetylamino)-3-(3-pyridyl)propionic Acid Hydrochloride]
0.3 nM | COc1cc(CN2C(=O)N([C@@H](CC3CC3)C(=O)N[C@H](C)CC(=O)O)C(=O)C2(C)C)ccc1NC(=O)Nc1ccccc1C [Example 1, (R)-3-((S)-2-(4,4-Dimethyl-3-(4-(3-(2-methylphenyl)ureido)-3-methoxybenzyl)-2,5-dioxoimidazolidin-1-yl)-2-(cyclopropylmethyl)acetylamino)-3-methylpropionic Acid]
25.9 nM | Cc1ccccc1NC(=O)Nc1ccc(CN2C(=O)N([C@@H](CC3CC3)C(=O)N[C@H](C)CC(=O)O)C(=O)C2(C)C)cc1O [Example 5, (R)-3-((S)-2-(4,4-Dimethyl-3-(4-(3-(2-methylphenyl)ureido)-3-hydroxybenzyl)-2,5-dioxoimidazolidin-1-yl)-2-(cyclopropylmethyl)acetylamino)-3-methylpropionic Acid]
2.1 nM | COc1cc(CN2C(=O)N([C@@H](CC3CC3)C(=O)N[C@H](C)CC(=O)O)C(=O)C2(C)C)ccc1NC(=O)Nc1ccccc1 [Example 7, (R)-3-((S)-2-(4,4-Dimethyl-3-(4-(3-phenylureido)-3-methoxybenzyl)-2,5-dioxoimidazolidin-1-yl)-2-(cyclopropylmethyl)acetylamino)-3-methylpropionic Acid]
1.8 nM | COc1cc(CN2C(=O)N([C@@H](CC3CC3)C(=O)NC(CC(=O)O)c3ccncc3)C(=O)C2(C)C)ccc1NC(=O)Nc1ccccc1C (stereo partly drawn) [Example 13, 3-((S)-2-(4,4-Dimethyl-3-(4-(3-(2-methylphenyl)ureido)-3-methoxybenzyl)-2,5-dioxoimidazolidin-1-yl)-2-(cyclopropylmethyl)acetylamino)-3-(4-pyridyl)propionic Acid Hydrochloride]
0.9 nM | COc1cc(CN2C(=O)N([C@@H](CC3CC3)C(=O)NC(CC(=O)O)c3ccccn3)C(=O)C2(C)C)ccc1NC(=O)Nc1ccccc1C (stereo partly drawn) [Example 16, 3-((S)-2-(4,4-Dimethyl-3-(4-(3-(2-methylphenyl)ureido)-3-methoxybenzyl)-2,5-dioxoimidazolidin-1-yl)-2-(cyclopropylmethyl)acetylamino)-3-(2-pyridyl)propionic Acid]
